Reference: the supplement of paper PMC10331698
± gives the standard deviation of the averaged measurements.

Columns and labels:
Test in all cases: level (log10 ratio to DMSO vehicle control); higher = higher biomarker level / cell amount than vehicle control
[1] = compound: FC(F)(F)COC(OCC(F)(F)F)OCC(F)(F)F [tris(Trifluoroethoxy)methane]; conditions: in DMSO
Procedure: (§1)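 BioMAP Diversity Plus panel of 12 human primary cell co-culture systems (3C, 4H, LPS, SAg, BT, BF4T, BE3C, CASM3C, HDF3CGF, KF3CT, MyoF, Mphg). Compounds were added 1 h before stimulation and left for 24 h (MyoF 48 h; BT 72 h for soluble read-outs or 6 d for IgG). Biomarkers were read by ELISA, cytotoxicity by SRB, PBMC viability and proliferation by Alamar Blue. Each well value was divided by the mean of 8 DMSO control wells on the same plate and log10 transformed; duplicate blinded samples were tested at 4 concentrations.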

[2] = compound: C=CC(=O)OCCC(F)(F)C(F)(F)C(F)(F)C(F)(F)C(F)(F)C(F)(F)C(F)(F)C(F)(F)F [8:2 Fluorotelomer acrylate]; conditions: in DMSO
Procedure: as §1

[3] = compound: OCC(F)(F)C(F)(F)C(F)(F)C(F)(F)C(F)(F)C(F)(F)C(F)(F)C(F)(F)C(F)(F)C(F)(F)C(F)(F)F [11:1 Fluorotelomer alcohol]; conditions: in DMSO
Procedure: as §1

[4] = compound: O=S(=O)(OCC(F)(F)F)C(F)(F)C(F)(F)C(F)(F)C(F)(F)F [2,2,2-Trifluoroethyl perfluorobutanesulfonate]; conditions: in DMSO
Procedure: as §1

Perfluorooctanoic acid = compound: O=C(O)C(F)(F)C(F)(F)C(F)(F)C(F)(F)C(F)(F)C(F)(F)C(F)(F)F [Perfluorooctanoic acid]; conditions: in DMSO
Procedure: as §1

[5] = compound: OCCCCC(F)(F)C(F)(F)C(F)(F)C(F)(F)F [4:4 Fluorotelomer alcohol]; conditions: in DMSO
Procedure: as §1

[6] = compound: C=CC(=O)OCC(F)(F)C(F)(F)C(F)(F)C(F)(F)COC(=O)C=C [1H,1H,6H,6H-Perfluorohexane-1,6-diol diacrylate]; conditions: 6700 nM; in DMSO
Procedure: as §1

Test System	level (log10) ([1]; 6700 nM)	level (log10) ([1]; 20000 nM)	level (log10) ([1]; 60000 nM)	level (log10) ([2]; 6700 nM)	level (log10) ([2]; 20000 nM)	level (log10) ([2]; 60000 nM)	level (log10) ([3]; 1100 nM)	level (log10) ([3]; 3300 nM)	level (log10) ([3]; 10000 nM)	level (log10) ([4]; 6700 nM)	level (log10) ([4]; 20000 nM)	level (log10) ([4]; 60000 nM)	level (log10) (Perfluorooctanoic acid; 6700 nM)	level (log10) (Perfluorooctanoic acid; 20000 nM)	level (log10) (Perfluorooctanoic acid; 60000 nM)	level (log10) ([5]; 6700 nM)	level (log10) ([5]; 20000 nM)	level (log10) ([5]; 60000 nM)	level (log10) [6]
lMphg:CCL2/MCP-1	-0.01 ± 0.023	0.0005 ± 0.011	0.018 ± 0.035	0.0035 ± 0.021	-0.0025 ± 0.0064	-0.0235 ± 0.039	0.0125 ± 0.0078	0.0295 ± 0.035	0.0535 ± 0.0021	-0.0115 ± 0.021	-0.0245 ± 0.022	-0.0405 ± 0.0035	0.018 ± 0.0071	0.036 ± 0.0028	0.025 ± 0.025	-0.0295 ± 0.037	-0.0145 ± 0.00071	0.009 ± 0.0071	-0.04 ± 0.061
lMphg:CCL3/MIP-1alpha	-0.03 ± 0.021	-0.035 ± 0.024	-0.0245 ± 0.018	0.056 ± 0.011	0.0485 ± 0.047	0.0325 ± 0.025	0.014 ± 0.011	-0.0165 ± 0.026	-0.06 ± 0.021	-0.025 ± 0.052	-0.078 ± 0.054	-0.119 ± 0.018	0.039 ± 0.033	0.0295 ± 0.066	-0.0365 ± 0.067	-0.0205 ± 0.0035	-0.041 ± 0.021	-0.0365 ± 0.022	-0.0045 ± 0.07
lMphg:CD40	-0.0235 ± 0.044	-0.0135 ± 0.012	-0.0265 ± 0.032	-0.014 ± 0.025	-0.0065 ± 0.0078	-0.0225 ± 0.021	0.0005 ± 0.036	0.005 ± 0.042	-0.357 ± 0.028	-0.0015 ± 0.00071	0.0085 ± 0.04	-0.007 ± 0.017	-0.0035 ± 0.021	-0.021 ± 0.0057	-0.018 ± 0.014	-0.0295 ± 0.005	-0.0195 ± 0.029	-0.0055 ± 0.033	-0.051 ± 0.024
lMphg:CD62E/E-Selectin	0.023 ± 0.082	-0.0245 ± 0.076	-0.0085 ± 0.076	0.019 ± 0.038	0.0215 ± 0.0064	0.041 ± 0.034	0.0715 ± 0.011	0.084 ± 0.024	0.118 ± 0.012	0.02 ± 0.031	0.0255 ± 0.033	-0.0435 ± 0.0064	-0.007 ± 0.025	0.013	0.052 ± 0.017	-0.0275 ± 0.018	-0.012 ± 0.018	-0.0195 ± 0.04	-0.044 ± 0.021
lMphg:CD69	0.0225 ± 0.05	0.005 ± 0.035	0.0095 ± 0.042	-0.054 ± 0.017	-0.0565 ± 0.023	0.002 ± 0.079	-0.038 ± 0.017	-0.103 ± 0.028	-0.0685 ± 0.0078	-0.016 ± 0.033	-0.0355 ± 0.0021	-0.079 ± 0.028	-0.048 ± 0.028	-0.0655 ± 0.05	-0.033 ± 0.11	-0.0475 ± 0.04	-0.063 ± 0.018	-0.014 ± 0.045	-0.06 ± 0.0042
lMphg:CD106/VCAM-1	0.0065 ± 0.0035	0.023 ± 0.0099	-0.0145 ± 0.0092	0 ± 0.013	-0.015 ± 0.0014	-0.0045 ± 0.03	0.0045 ± 0.005	-0.001 ± 0.0014	-0.0015 ± 0.0035	-0.0355 ± 0.015	-0.0215 ± 0.028	-0.055 ± 0.024	0.0065 ± 0.0078	0.0065 ± 0.011	0.0025 ± 0.0092	-0.0195 ± 0.005	-0.0045 ± 0.019	-0.0025 ± 0.042	-0.0445 ± 0.018
lMphg:CXCL8/IL-8	-0.0095 ± 0.016	-0.018 ± 0.0042	-0.007 ± 0.044	-0.009 ± 0.052	0.019 ± 0.035	0.0665 ± 0.029	0.111 ± 0.042	0.127 ± 0.033	0.0445 ± 0.0064	0.031	0.025 ± 0.018	0.072 ± 0.068	0.009 ± 0.021	0.073 ± 0.048	0.175 ± 0.054	-0.04 ± 0.035	-0.0355 ± 0.029	0.022 ± 0.021	0.0035 ± 0.0092
lMphg:IL-1alpha	-0.031 ± 0.014	-0.03 ± 0.0028	-0.006 ± 0.03	-0.012	-0.007 ± 0.021	0.035 ± 0.059	0.057 ± 0.025	0.039 ± 0.0085	-0.12 ± 0.076	-0.012 ± 0.0028	-0.0425 ± 0.06	-0.073 ± 0.0014	-0.0105 ± 0.0021	-0.0085 ± 0.026	0.0545 ± 0.026	-0.0075 ± 0.005	-0.0125 ± 0.005	0.0115 ± 0.015	0.0245 ± 0.057
lMphg:M-CSF	-0.012 ± 0.0071	-0.025 ± 0.035	-0.0135 ± 0.029	-0.0195 ± 0.042	-0.013 ± 0.014	-0.003 ± 0.016	-0.0045 ± 0.005	-0.0195 ± 0.0078	-0.0735 ± 0.016	0.035 ± 0.017	0.014 ± 0.018	-0.006 ± 0.021	-0.007 ± 0.0042	0.0105 ± 0.019	0.0185 ± 0.029	-0.0185 ± 0.019	-0.0095 ± 0.0035	0.0105 ± 0.042	-0.0105 ± 0.015
lMphg:SRB	-0.0035 ± 0.011	-0.0025 ± 0.0021	0.0045 ± 0.023	-0.003 ± 0.0085	-0.0105 ± 0.016	-0.004 ± 0.034	0.0045 ± 0.00071	0.001	-0.0205 ± 0.005	-0.005 ± 0.0071	-0.012 ± 0.0085	-0.008 ± 0.018	-0.008 ± 0.0071	-0.0005 ± 0.005	0.011 ± 0.017	-0.015 ± 0.0028	-0.0055 ± 0.0035	0.004 ± 0.033	-0.0075 ± 0.0035
lMphg:SRB-Mphg	-0.026 ± 0.013	-0.038 ± 0.044	-0.008 ± 0.027	-0.026 ± 0.0014	-0.012 ± 0.021	0.003 ± 0.037	-0.039 ± 0.0014	-0.105 ± 0.0085	-0.205 ± 0.0085	-0.005 ± 0.0071	-0.019 ± 0.014	-0.024 ± 0.031	-0.0085 ± 0.013	0.0005 ± 0.005	-0.002 ± 0.03	0.008 ± 0.016	-0.009 ± 0.0057	-0.01 ± 0.0085	-0.0115 ± 0.084
lMphg:sIL-10	-0.045 ± 0.075	-0.061 ± 0.037	-0.0855 ± 0.091	-0.058 ± 0.016	-0.014 ± 0.062	-0.0465 ± 0.012	-0.0255 ± 0.069	-0.0875 ± 0.066	-0.216 ± 0.082	0.072 ± 0.0042	0.0465 ± 0.0035	-0.171 ± 0.052	-0.0525 ± 0.032	-0.0035 ± 0.11	-0.219 ± 0.051	-0.096 ± 0.11	-0.032 ± 0.0028	-0.014 ± 0.041	-0.067 ± 0.014
